Measured values from patent US20150306045A1, “METHOD OF REGULATING CIRCADIAN RHYTHM, AND METHOD OF PREPARING CIRCADIAN RHYTHM REGULATORY AGENT” (National Institute of Advanced Industrial Science & …, priority 2012, published 2015).

Test system: clock gene Bmall promoter in NIH3T3 cells
Experiment: Bmall promoter luciferase reporter, influence on expression of circadian clock gene (Test Example 1)
Format: cell-based, mouse
Conditions: Example 1, 12.5 μM in medium, NIH3T3, vs ethanol control, FIG. 1
Procedure: The circadian rhythm regulatory agents of Examples 1 to 3 (i.e., 1,3-dihydroxy-5-n-pentadecylbenzene, alkylresorcinol-containing ethanolic bran extract, and alkylresorcinol-containing ethanolic rye extract) were evaluated for the influence on expression of circadian clock gene in accordance with the following test method.
To prepare a recombination vector, the promoter regions of a clock gene Bmall (−97 to +27 regions including the RORE sequence and the transcription initiation site) were inserted into a luciferase luminescence vector containing a PEST sequence serving as a signal for rapid degradation of expressed proteins (pGL3-dLuc, from Promega). About 5×10^5 cells of mouse fibroblast cell line NIH3T3 were inoculated into a 35 mm diameter culture dish. […]
Screening of candidate substances was performed using the culture cells. […] Then, a test substance was added to a medium containing a luciferin, (a luminescence substrate of […]), and chemiluminescence by the reporter genes was measured in real-time while continuing the cell culture. […] As a control, ethanol, which is the solvent of the test substance, was added at the same timing, and the changes in amount of luminescence were compared. Luminescence was measured for one minute at 10 minute interval using AB-2550 Kronos Dia from ATTO Corp.

CCCCCCCCCCCCCCCc1cc(O)cc(O)c1 [Example 1, 1,3-Dihydhroxy-5-n-pentadecylbenzene (C15:0)]
circadian rhythm phase of Bmall expression: delays the circadian rhythm phase | shortening of the cycle of Bmall expression rhythm: 0.5 h
